The text below walks through data of patent US8299103B2, “Compounds which selectively modulate the CB2 receptor” (Boehringer Ingelheim International GmbH, priority 2009, dated 2012).

Experiment [1] deals with T1, human CB1R (Homo sapiens, UniProt P21554).
T1 construct: host or cells: CHO cells
Briefly: CB1R mediated modulation of cAMP synthesis. It counts as cell-based. As for the experimental part: C. CB1R Mediated Modulation of cAMP Synthesis:
Compounds of the invention are evaluated for their CB1 agonist or inverse agonistic activity in accordance with the following experimental method.
(§1) CHO cells expressing human CB1R (Euroscreen) are plated at a density of 5000 cells per well in 384 well plates and incubated overnight at 37° C. After removing the media, the cells are treated with test compounds diluted in stimulation buffer containing 1 mM IBMX, 0.25% BSA and 10 uM Forskolin. The assay is incubated for 30 minutes at 37° C. Cells are lysed and the cAMP concentration is measured using DiscoverX-XS cAMP kit, following the manufacturer's protocol. In this setting, agonists will decrease forskolin induced production of cAMP while inverse agonists will further increase forskolin induced production of cAMP. EC50 of agonists are calculated as follows. The maximal amount of cAMP produced by forskolin compared to the level of cAMP inhibited by 1 uM CP55940 is defined as 100%. The EC50 value of each test compound is determined as the concentration at which 50% of the forskolin-stimulated cAMP synthesis is inhibited. Data is analyzed using a four-parameter logistic model. (Model 205 of XLfit 4.0).

Experiment [2] has as its target T2, human CB2R (Homo sapiens, UniProt P34972).
T2 construct: host or cells: CHO cells
The experiment is described as follows: CB2R mediated modulation of cAMP synthesis. It counts as cell-based. The procedure:
B. CB2R Mediated Modulation of cAMP Synthesis:
Compounds of the invention are evaluated for their CB2 agonist or inverse agonistic activity in accordance with the following experimental method.
as §1, with “CB2R” for “CB1R”

Where [3] appears, read: CHO cells expressing human CB1R, inhibition of forskolin-stimulated cAMP synthesis, read-out: CB1 EC50.
Where [4] appears, read: CHO cells expressing human CB2R, inhibition of forskolin-stimulated cAMP synthesis, read-out: CB2 EC50.

Molecules are shown by their SMILES. Read-outs that look alike come from different tables or passages of the source. Where only a bound is given, the exact number is not on record here.

T1 sequence (P21554 whole entry): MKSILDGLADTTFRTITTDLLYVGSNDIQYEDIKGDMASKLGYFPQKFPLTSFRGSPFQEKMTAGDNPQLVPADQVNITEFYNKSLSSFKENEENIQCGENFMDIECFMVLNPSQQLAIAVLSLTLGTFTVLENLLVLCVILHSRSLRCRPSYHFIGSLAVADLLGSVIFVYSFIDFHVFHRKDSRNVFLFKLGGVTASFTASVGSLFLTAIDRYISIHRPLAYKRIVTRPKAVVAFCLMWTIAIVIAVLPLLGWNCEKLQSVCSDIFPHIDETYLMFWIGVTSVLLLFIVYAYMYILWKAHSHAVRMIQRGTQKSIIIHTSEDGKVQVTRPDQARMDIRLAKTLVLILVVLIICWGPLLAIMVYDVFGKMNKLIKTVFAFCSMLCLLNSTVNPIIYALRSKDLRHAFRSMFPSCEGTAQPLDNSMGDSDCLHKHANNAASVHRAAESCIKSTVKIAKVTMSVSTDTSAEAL
T2 sequence (P34972 whole entry): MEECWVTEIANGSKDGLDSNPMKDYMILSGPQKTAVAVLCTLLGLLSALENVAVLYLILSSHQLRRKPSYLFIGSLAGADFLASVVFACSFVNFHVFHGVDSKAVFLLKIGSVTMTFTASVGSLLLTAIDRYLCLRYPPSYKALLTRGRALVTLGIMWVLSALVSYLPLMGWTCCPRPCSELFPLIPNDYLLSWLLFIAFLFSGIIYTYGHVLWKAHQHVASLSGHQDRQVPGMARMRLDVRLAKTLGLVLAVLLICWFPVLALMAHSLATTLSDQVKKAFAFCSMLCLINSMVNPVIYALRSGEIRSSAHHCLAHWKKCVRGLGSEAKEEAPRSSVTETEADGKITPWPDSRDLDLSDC

As a reminder, the EC50 is the concentration at which the effect is half-maximal. For the molecule `CC(C)(NCCCC(F)(F)F)C(=O)Nc1cc(C(C)(C)CO)no1`, the EC50 in experiment [1] was greater than 50000 nM; in experiment [2], 31 nM.

`CC(C)(CO)c1cc(NC(=O)C(C)(C)N2CC[C@@H](O)C2)on1`: the EC50 in experiment [1] (setting [3]) was greater than 50000 nM; in experiment [2] (setting [4]) it was 494 nM.

Regarding `COCC(C)(C)c1cc(NC(=O)C(C)(C)NC2CCOCC2)no1`, the EC50 was greater than 20000 nM in experiment [1] (setting [3]) and 337 nM in experiment [2] (setting [4]). Regarding `COCC(C)(C)c1cc(NC(=O)C(C)(C)NCC2CCOCC2)no1`, the EC50 was greater than 20000 nM in experiment [1] (setting [3]) and 132 nM in experiment [2] (setting [4]). Consider `C[C@H](O)C(C)(C)c1cc(NC(=O)C(C)(C)N(C)C2CCOCC2)on1`, for which the EC50 in experiment [1] came out at 44700 nM; in experiment [2] it was 28 nM. In turn, `CN(C1CC1)C(C)(C)C(=O)Nc1cc(C(C)(C)CO)no1` registered an EC50 in experiment [2] of 446 nM. `CN(CC1CCOC1)C(C)(C)C(=O)Nc1cc(C(C)(C)CO)no1` (centres unmarked): the EC50 in experiment [1] is greater than 50000 nM; in experiment [2], 29 nM. As to `COCCOC(C)(C)c1cc(NC(=O)C(C)(C)N(C)C2CCOCC2)on1`, the EC50 in experiment [1] is greater than 50000 nM; in experiment [2], 93 nM. As to `CN(C1CCOCC1)C(C)(C)C(=O)Nc1cc(C2(CO)CCCC2)no1`, the results for the EC50 in experiment [1] and in experiment [2] were 21500 nM and 21 nM, respectively. With `CC(C)(NCCCC(F)(F)F)C(=O)Nc1cc(C2(CO)CCC2)no1`, the EC50 is greater than 50000 nM in experiment [1] and 54 nM in experiment [2]. As for `CC(C)(N[C@H]1CC[C@@H](O)CC1)C(=O)Nc1cc(C(C)(C)CO)no1`, the EC50 in experiment [1] (setting [3]) was greater than 50000 nM; in experiment [2] (setting [4]), 300 nM. On to `CC(C)(NC1CCN(S(C)(=O)=O)CC1)C(=O)Nc1cc(C(C)(C)CO)no1`, for which the EC50 in experiment [1] (setting [3]) is greater than 50000 nM; in experiment [2] (setting [4]), 302 nM. In the case of `CC(C)N(C)C(C)(C)C(=O)Nc1cc(C(C)(C)CO)no1`, the 50% effective concentration (EC50) in experiment [1] (setting [3]) was greater than 50000 nM; in experiment [2] (setting [4]) it was 244 nM. Take `CC(C)(NC1CCC(NS(C)(=O)=O)CC1)C(=O)Nc1nnn(C(C)(C)C)n1` (centres unmarked): the EC50 was greater than 50000 nM in experiment [1] (read-out: CB1 EC50, CHO cells expressing human CB1R, inhibition of forskolin-stimulated cAMP synthesis) and 33 nM in experiment [2] (read-out: CB2 EC50, CHO cells expressing human CB2R, inhibition of forskolin-stimulated cAMP synthesis). For the molecule `CN(C(=O)CC1CCOCC1)C(C)(C)C(=O)Nc1cc(C(C)(C)CO)no1`, the EC50 was greater than 50000 nM in experiment [1] and 27 nM in experiment [2].

As to `CC(C)(NCCC1CCOCC1)C(=O)Nc1cc(C(C)(C)CO)no1`, the EC50 is greater than 50000 nM in experiment [1] (setting [3]) and 113 nM in experiment [2] (setting [4]). In the same order, the values of `COCCOCC(C)(C)c1cc(NC(=O)C(C)(C)N(C)C2CCOCC2)on1` are greater than 50000 nM and 246 nM.

As for `CN(C[C@H]1CCCN(S(C)(=O)=O)C1)C(C)(C)C(=O)Nc1cc(C(C)(C)CO)no1`, the EC50 in experiment [1] (setting [3]) is greater than 50000 nM; in experiment [2] (setting [4]), 126 nM.

As to `CN(C(=O)C[C@H]1CCOC1)C(C)(C)C(=O)Nc1cc(C(C)(C)CO)no1`, the EC50 in experiment [1] was greater than 50000 nM; in experiment [2] it was 25 nM. Consider `CN(C1CCOCC1)C(C)(C)C(=O)Nc1cc(C(C)(C)CO)no1`, for which the EC50 was greater than 50000 nM in experiment [1] and 56 nM in experiment [2]. As to `CN(C[C@H]1COCCO1)C(C)(C)C(=O)Nc1cc(C(C)(C)CO)no1`, the EC50 is greater than 50000 nM in experiment [1] and 68 nM in experiment [2].

Turning to `CN(C[C@@H]1COCCO1)C(C)(C)C(=O)Nc1cc(C(C)(C)CO)no1`, the EC50 in experiment [1] is greater than 50000 nM; in experiment [2] it was 40 nM. The matching figures for `CN(C1CCOCC1)C(C)(C)C(=O)Nc1cc(C2(CO)CCC2)no1`: greater than 50000 nM and 66 nM. Regarding `CC(C)(NCC1CCOCC1)C(=O)Nc1cc(C(C)(C)CO)no1`, the EC50 was greater than 50000 nM in experiment [1] (setting [3]) and 374 nM in experiment [2] (setting [4]). Turning to `CN(CC1CC1)C(C)(C)C(=O)Nc1cc(C(C)(C)CO)no1`, the EC50 in experiment [1] was 36000 nM; in experiment [2] it was 12 nM. The matching figures for `CN([C@H]1CCN(S(C)(=O)=O)C1)C(C)(C)C(=O)Nc1cc(C(C)(C)CO)no1`: greater than 50000 nM and 28 nM. Regarding `CC(C)(NCC1CCOCC1)C(=O)Nc1cc(C(C)(C)COC2CCCCO2)no1` (centres unmarked), the EC50 is greater than 50000 nM in experiment [1] (setting [3]) and 201 nM in experiment [2] (setting [4]). For the molecule `CC(C)(N[C@H]1CC[C@@H](NS(C)(=O)=O)CC1)C(=O)Nc1cc(C(C)(C)CO)no1`, the EC50 was greater than 50000 nM in experiment [1] and 42 nM in experiment [2]. Regarding `CC(C)(NCCCC(F)(F)F)C(=O)Nc1cc(C(C)(C)OCCO)no1`, the values for the EC50 in experiment [1] (setting [3]) and in experiment [2] (setting [4]) were greater than 50000 nM and 109 nM, respectively. Consider `CN(C(=O)CCCC(F)(F)F)C(C)(C)C(=O)Nc1cc(C(C)(C)CO)no1`, for which the figures for the half-maximal effective concentration (EC50) in experiment [1] and in experiment [2] were 32100 nM and 27 nM, respectively. The matching figures for `CN(CC1CCOCC1)C(C)(C)C(=O)Nc1cc(C2(O)CC2)no1`: greater than 50000 nM and 13 nM. `CN(C(=O)CCC(F)(F)F)C(C)(C)C(=O)Nc1cc(C(C)(C)CO)no1`: the results for the EC50 in experiment [1] and in experiment [2] were greater than 50000 nM and 69 nM, respectively. With `CN(CC1CCOCC1)C(C)(C)C(=O)Nc1nnc(C(C)(C)CO)s1`, the EC50 is greater than 50000 nM in experiment [1] (setting [3]) and 11 nM in experiment [2] (setting [4]).

Take `Cc1ncc(C(C)(C)c2cc(NC(=O)C(C)(C)NC3CCN(S(C)(=O)=O)CC3)on2)s1`: the EC50 is greater than 50000 nM in experiment [1] (setting [3]) and 195 nM in experiment [2] (setting [4]).

Regarding `CC[C@H](C)N(C)C(C)(C)C(=O)Nc1cc(C(C)(C)CO)no1`, the EC50 in experiment [1] (setting [3]) is greater than 50000 nM; in experiment [2] (setting [4]) it was 220 nM.

With `CC(C)(CO)c1cc(NC(=O)C(C)(C)N2CCC(NS(C)(=O)=O)CC2)on1`, the concentration for a half-maximal effect (EC50) was greater than 50000 nM in experiment [1] and 7.1 nM in experiment [2].

`Cc1ncc(C(C)(C)c2cc(NC(=O)C(C)(C)N(C)C3CCOCC3)on2)o1`: the EC50 in experiment [1] came out at 20800 nM; in experiment [2], 15 nM. As for `CN(C1CCOCC1)C(C)(C)C(=O)Nc1cc(C(C)(C)C2CCOCC2)no1`, the values for the EC50 in experiment [1] and in experiment [2] were greater than 50000 nM and 44 nM, respectively. As to `CN([C@@H]1CCN(S(C)(=O)=O)C1)C(C)(C)C(=O)Nc1cc(C(C)(C)CO)no1`, the results for the EC50 in experiment [1] and in experiment [2] were greater than 20000 nM and 1.7 nM, respectively.

On to `COCC(C)(C)c1cc(NC(=O)C(C)(C)NC2CCOCC2)on1`, for which the EC50 in experiment [1] (setting [3]) is greater than 20000 nM; in experiment [2] (setting [4]), 313 nM.

For the molecule `CN(C1CCOCC1)C(C)(C)C(=O)Nc1cc(C(C)(C)COCCO)no1`, the results for the EC50 in experiment [1] and in experiment [2] were 37600 nM and 15 nM, respectively.

Consider `CC(C)(CO)c1cc(NC(=O)C(C)(C)N2CCCCC2)on1`, for which the EC50 in experiment [1] was 22000 nM; in experiment [2], 28 nM.
